Source: patent US20250034210A1, “DLL3 TARGETING PEPTIDES AND CONSTRUCTS THEREOF” (MARIANA ONCOLOGY INC., priority 2023, published 2025)
*1 amine or outer side, *2 acyl side, *3 side chain or, on linkers, in order; H or OH if unused. Where a SMILES comes first, the peptide text is derived from it. Bridges are numbered along the chain shown (N, C = ends). [ ]: non-standard residue; d: D form. The star is where a group is joined. DOTA = O=C(O)CN1CCN(CC(=O)O)CCN(CC(=O)*)CCN(CC(=O)O)CC1; γGlu = O=C(O)[C@H](CCC(=O)[*:2])N[*:1]; Ahx = NCCCCCC(=O)O

What was measured:
human DLL3 = target: T1, human DLL3 (Homo sapiens, UniProt Q9NYJ7); assay: Affinity determination by Surface Plasmon Resonance (SPR), biotinylated human DLL3 immobilized on streptavidin sensor chip; conditions: 25° C., Biacore, 1:1 binding model
T1 construct: biotin (biotinylated)
T1 sequence (Q9NYJ7 27-618): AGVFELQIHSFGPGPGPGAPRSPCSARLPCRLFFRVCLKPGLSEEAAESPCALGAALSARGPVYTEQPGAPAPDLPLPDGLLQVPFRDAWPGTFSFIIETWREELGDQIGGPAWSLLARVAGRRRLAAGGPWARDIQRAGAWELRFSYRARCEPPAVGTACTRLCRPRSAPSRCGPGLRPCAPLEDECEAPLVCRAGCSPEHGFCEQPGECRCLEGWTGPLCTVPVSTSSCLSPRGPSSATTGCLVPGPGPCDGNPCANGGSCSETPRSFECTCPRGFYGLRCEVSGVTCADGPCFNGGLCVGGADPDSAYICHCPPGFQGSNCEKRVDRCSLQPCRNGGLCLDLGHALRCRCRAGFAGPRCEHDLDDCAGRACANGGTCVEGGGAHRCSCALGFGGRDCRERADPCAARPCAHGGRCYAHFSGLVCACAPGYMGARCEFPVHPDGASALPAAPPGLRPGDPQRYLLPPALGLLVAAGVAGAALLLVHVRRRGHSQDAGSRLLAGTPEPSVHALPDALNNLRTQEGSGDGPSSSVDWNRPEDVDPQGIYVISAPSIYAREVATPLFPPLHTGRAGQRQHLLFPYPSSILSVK
Description: Affinity Determination by Surface Plasmon Resonance (SPR). SPR studies were performed on the compounds disclosed herein using the following protocol.
The binding affinity and binding kinetic parameters at 25° C. were determined using Biacore S200 or biacore 8K instrument. Biotinylated target ligand human DLL3 was immobilized on a streptavidin sensor chip. A reference surface was set up for nonspecific binding and refractive index changes. For analysis of the kinetics of interactions, varying concentrations of samples were injected at a flow rate of 100 μL/min using running buffer containing 20 mM phosphate buffer with 2.7 mM KCl, 137 mM NaCl, 0.05% Surfactant P20 and 2% DMSO. Sensorgram curves were fitted with 1:1 binding model, and affinity and kinetic parameters were obtained using Biacore Insight evaluation 4.0. software.

SHP-77 tumors = assay: Ex vivo biodistribution of radiolabeled peptides in nude mice bearing SHP-77 tumors; conditions: [^177Lu]Lu labelling; nude mice bearing SHP-77 tumors (n = 3); 24 hours post-injection; intravenous
Description: [^177Lu]LuCl3 was received from venders in HCl solution. For every mCi of [^177Lu]LuCl3 added to the reaction vial (1.5 mL Eppendorf vial), ammonium acetate buffer (0.2 M, pH 4.9, 100 μL, containing 1% w/v ascorbic acid and 6% v/v ethanol) and peptide conjugate (1 nmol also referred to herein as “chelator-peptides”) was added. A peptide conjugate of the present disclosure is also referred to herein as a “chelator-peptide”. The pH of the solution was determined to be approximately 5 by using pH strips. The reaction vial was incubated at 80° C., 700 RPM for 17-20 minutes. A sample from the reaction was analyzed by RP-HPLC using an Agilent Infinity II 1260 HPLC to determine reaction completion and radiochemical purity of [^177Lu]Lu-chelator-peptide. HPLC conditions: Waters XBridge BEH C18 Column, 130 A, 3.5 um, 4.6 mm×250 mm; mobile phase: Solvent A=water (with 0.1% formic acid), solvent B=acetonitrile (with 0.1% formic acid). Gradients: 25-45% B in 10 minutes, 45-65% B in 12 minutes, 65-90% in 6 minutes at a flow rate of 0.5 mL/min. Required amounts of the product was formulated in 1% PBSA for cell studies.
Mice were intravenously injected (via the lateral tail vein) with a bolus dose of the radiolabeled peptides for ex vivo biodistribution studies when tumor volumes were in range of 200-400 mm^3 for xenograft mice and when age of the mice was 5-7 weeks for tumor naïve mice studies. To assess the amount of radionuclide injected into individual mice the syringe was assayed in a dose calibrator before and after injection for [^177Lu]Lu-peptide.
Mice were euthanized at pre-determined time points and selected tissues were resected and collected into pre-weighed tubes. The tubes were then reweighed post resection, the difference giving the weight of each tissue. Radioactivity in each tissue was measured using a gamma counter. Counts were decay corrected to the time of injection and percentage of injected activity per gram (% IA/g) was calculated for each tissue based on the injected activity into each individual mouse. Injected activity was converted to counts based on the sensitivity of the gamma counter. The counts in tissue were then converted to the percentage of injected activity and this was divided by the mass of tissue to give % IA/g.

## CC[C@H](C)[C@H](NC(=O)[C@@H](NC(=O)[C@H](Cc1c[nH]c2ccccc12)NC(=O)CCCCCNC(=O)CN1CCN(CC(=O)O)CCN(CC(=O)O)CCN(CC(=O)O)CC1)[C@@H](C)O)C(=O)N[C@H]1CSSC[C@@H](C(=O)N[C@@H](Cc2c[nH]c3ccccc23)C(=O)N2CCC[C@@H]2C(N)=O)NC(=O)[C@H](CC(=O)O)NC(=O)[C@H](Cc2cnc[nH]2)NC(=O)[C@H](Cc2c[nH]c3ccccc23)NC(=O)[C@H](CC(N)=O)NC(=O)[C@H](CC(N)=O)NC1=O [compound 18, DOTA-Ahx-W-T-I-C(3)-N-N-W-H-D-C(3)-W-P-CONH2] ({DOTA-Ahx}-WTICNNWHDCW[dP]-NH2; disulfide 4-10)
Human DLL3
  Kd: 1 to 10 nM
SHP-77 tumors
  kidney uptake (% IA/g): D (% IA/g > 10 in kidney)
  tumor uptake (% IA/g): A (0 < % IA/g ≤ 5 in tumor)

## CC[C@H](C)[C@H](NC(=O)[C@@H](NC(=O)[C@H](Cc1c[nH]c2ccccc12)NC(=O)CC[C@H](NC(=O)CC[C@H](NC(=O)CC[C@H](NC(=O)CN1CCN(CC(=O)O)CCN(CC(=O)O)CCN(CC(=O)O)CC1)C(=O)O)C(=O)O)C(=O)O)[C@@H](C)O)C(=O)N[C@H]1CSSC[C@@H](C(=O)N[C@@H](Cc2c[nH]c3ccccc23)C(=O)N2CCC[C@H]2C(N)=O)NC(=O)[C@H](CC(=O)O)NC(=O)[C@H](Cc2c[nH]cn2)NC(=O)[C@H](Cc2c[nH]c3ccccc23)NC(=O)[C@H](CC(N)=O)NC(=O)[C@H](CC(N)=O)NC1=O [compound 82, DOTA-(gE)3-W-T-I-C(3)-N-N-W-H-D-C(3)-W-P-CONH2] ({DOTA-γGlu-γGlu-γGlu}-WTICNNWHDCWP-NH2; disulfide 4-10)
SHP-77 tumors
  kidney uptake (% IA/g): D (% IA/g > 10 in kidney)
  tumor uptake (% IA/g): A (0 < % IA/g ≤ 5 in tumor)
